# Measured values reported in paper PMC11395333, “The Bifunctional Dimer Caffeine-Indan Attenuates α-Synuclein Misfolding, Neurodegeneration and Behavioral Deficits after Chronic Stimulation of Adenosine A1 Receptors” (International Journal of Molecular Sciences, 2024).
# How the values were obtained:
# Assay type in all cases: in vivo, rat
# [1] = test system: male Sprague-Dawley rats; assay: Y-maze test after 7-day chronic i.p. CPA injection
# Excerpt: All animals were housed and treated humanely following the guidelines from the following governing bodies: National Research Council (US) Committee for the Update of the Guide for the Care and Use of Laboratory Animals (Washington DC, USA, 2011); Canadian Council on Animal Care (CCAC); and the University of Saskatchewan Animal Research Ethics Board (AREB), which approved our Animal Use Protocol (#20070090 and #20170079). The animals were housed in cages of two, with access to food pellets and water ad libitum. The four treatments of the Sprague-Dawley rats consisted of the following: 1. Control (0.1% DMSO in 0.9% saline); 2. CPA; 3. […] Drugs were dissolved at 3 mg/mL in DMSO, and each drug was administered to the animals by daily i.p. injections (3 mg/kg or 5 mg/kg body weight) for 7 consecutive days. […] Then, on days 8 and 9 following the final injections, the animals were subjected to several behavioral tests. The Y-maze or the modified Y-maze is a rodent behavior test used to assess short-term spatial memory based on the innate inclination of animals to explore new areas not previously seen. In this study, the Y-maze test is used to assess short-term memory, especially hippocampal-dependent spatial memory. The maze is shaped like a “Y”, with each arm oriented at a 120° angle from one another. The arms are 50 cm in length, 15 cm in width and 35 cm in depth. For the first trial, which lasts 15 min, the animal is placed at the beginning of the “Start arm” and is free to explore this arm and another one (referred to as the “Old arm”), while the remaining arm (“New arm”) is blocked. This trial should give the animal time to explore and become acquainted with the maze’s two arms. After a resting period of 90 min, the blocked arm is opened, and the animal is placed again at the “Start arm”. […] This trial is then used to calculate the percentage of time the animals spent in each arm. A video camera was used to record the animal movement in both trials. Each experiment was repeated at least fifteen times per treatment and the average of each treatment is presented in the bar graphs as average means ± standard error of the mean (SEM).
# [2] = test system: male Sprague-Dawley rats; assay: Forced swim test after 7-day chronic i.p. CPA injection
# Excerpt: All animals were housed and treated humanely following the guidelines from the following governing bodies: National Research Council (US) Committee for the Update of the Guide for the Care and Use of Laboratory Animals (Washington DC, USA, 2011); Canadian Council on Animal Care (CCAC); and the University of Saskatchewan Animal Research Ethics Board (AREB), which approved our Animal Use Protocol (#20070090 and #20170079). The animals were housed in cages of two, with access to food pellets and water ad libitum. The four treatments of the Sprague-Dawley rats consisted of the following: 1. Control (0.1% DMSO in 0.9% saline); 2. CPA; 3. […] Drugs were dissolved at 3 mg/mL in DMSO, and each drug was administered to the animals by daily i.p. injections (3 mg/kg or 5 mg/kg body weight) for 7 consecutive days. […] Then, on days 8 and 9 following the final injections, the animals were subjected to several behavioral tests. The forced swim test is used to assess depressive behavior such as despair and learned helplessness. The test is also used to assess the vigor and the ability of the animal to keep its head above the water in which the animals swim. In addition, the first and last three minutes of the test were manually scored for the ability of the rat to swim with all its four limbs. […] In addition, the ability of the animal to keep its head above water was scored. […] The forced swim test apparatus was a plexiglass cuboid measuring 30 cm in length, 30 cm in width and 60 cm in depth. The tank was then filled two-thirds with lukewarm water not exceeding 25 °C. Afterwards, the animal was left in the cylinder for 10 min during which its time spent immobile as well as its ability to swim and keep its head above water was analyzed. This trial was then used to calculate the percentage of time the animals spent immobile, as well as the vigor and success with which the animal swam. A video camera was used to record the animal movement in this test. The forced swim test was conducted the following day (day nine), giving the animals a sufficient resting period from the Y-maze and open field tests. Each experiment was repeated at least fifteen times per treatment, and the average of each treatment is presented in the bar graphs as average means ± SEM.
# [3] = test system: SN pars compacta and hippocampal CA1 neurons; assay: Fluoro-Jade C staining of brain slices (neurodegeneration)
# Excerpt: All animals were housed and treated humanely following the guidelines from the following governing bodies: National Research Council (US) Committee for the Update of the Guide for the Care and Use of Laboratory Animals (Washington DC, USA, 2011); Canadian Council on Animal Care (CCAC); and the University of Saskatchewan Animal Research Ethics Board (AREB), which approved our Animal Use Protocol (#20070090 and #20170079). The animals were housed in cages of two, with access to food pellets and water ad libitum. The four treatments of the Sprague-Dawley rats consisted of the following: 1. Control (0.1% DMSO in 0.9% saline); 2. CPA; 3. […] Drugs were dissolved at 3 mg/mL in DMSO, and each drug was administered to the animals by daily i.p. injections (3 mg/kg or 5 mg/kg body weight) for 7 consecutive days. […] Then, on days 8 and 9 following the final injections, the animals were subjected to several behavioral tests. Fluro-Jade C (FJC) is a fluorescent marker for neurodegeneration (Millipore-Sigma, Oakville, ON, Canada; Cat# AG325). […] Initially, the microscope slides were immersed in 1% NaOH/80% ethanol for 5 min followed by 2 min immersion in 70% ethanol. The slides were then rinsed for 2 min with ultra-pure water. The microscope slides were further immersed in 0.06% KMnO4 for 10 min, followed by an additional rinse for 2 min with ultra-pure water. The slides were then stained with 0.004% FJC in 0.1% acetic acid for 20 min with gentle shaking on an orbital shaker. Lastly, the slides were rinsed three times in ultra-pure water for 1 min each, making sure to remove all the excess water after each rinse. The slides were then rinsed in xylene and allowed to dry overnight at 4 °C. Then they were treated with Prolong Gold Antifade Reagent from Invitrogen (Thermo Fisher Scientific, Waltham, MA, USA), and respective images were taken using a Zeiss LSM700 confocal microscope (Carl Zeiss Group, Canada) and analyzed with ImageJ (Public Domain). FJC fluorescence was obtained by exciting the dye with a 488 nm laser.
# [4] = 5 mg/kg i.p. with 3 mg/kg CPA, 7 days
# [5] = 3 or 5 mg/kg i.p. with 3 mg/kg CPA, 7 days
# [6] = CPA 3 mg/kg i.p. daily for 7 days, alone
Structure (SMILES),"Y-maze, time spent in the start arm ([1]; 3 mg/kg i.p. with 3 mg/kg CPA, 7 days)","Y-maze, cognitive deficits [1, 4]","Y-maze, percentage of time spent in the novel arm ([1]; 3 or 5 mg/kg i.p. co-administered with 3 mg/kg CPA, 7 days)","Forced swim test, vigor and success scores [2, 4]","Forced swim test, immobility time [2, 5]","Forced swim test, motor deficits [2, 5]",FJC staining in SNc ([3]; 3 mg/kg and 5 mg/kg + CPA),"FJC, neurodegeneration in CA1 region of the hippocampus ([3]; 3 mg/kg or 5 mg/kg with CPA)","Y-maze, hippocampal-dependent spatial memory [1, 6]","Forced swim test, motor deficits [2, 6]","FJC fluorescence in SNc [3, 6]","FJC, degenerating neurons in CA1 region of the hippocampus [3, 6]"
Cn1c(=O)c2c(nc(CCCCCCNC3CCc4ccccc43)n2C)n(C)c1=O (stereo not drawn) [C8–6–I],approximately 45%,significantly ameliorated the cognitive deficits caused by CPA,attenuated the learning deficits caused by CPA,"significantly improved the ability to purposely swim and use all limbs, as well as the ability to keep their head above water",spent significantly less time being immobile compared to the CPA-treated rats,produced no significant motor deficits,did not significantly increase FJC staining compared to the vehicle control slices,prevented neurodegeneration in hippocampal slices,,,,
"OC[C@H]1O[C@@H](n2cnc3c(NC4CCCC4)ncnc32)[C@H](O)[C@@H]1O [CPA, N^6-Cyclopentyladenosine, reference compound]",,,,,,,,,induced hippocampal-dependent spatial memory deficits,induced an increase in motor deficits,increased the levels of FJC fluorescence compared to the control,much higher levels of degenerating CA1 pyramidal neurons compared to the control
